# Measured values from patent publication US9738634B2, “Heterocyclic amide compound and herbicide” (SYNGENTA PARTICIPATIONS AG, priority 2013, dated 2017).
# Columns and labels:
# Assay type in all cases: in vivo
# Conditions in all cases: treatment dosage 80 g/ha
# black-grass [1] = assay: Test Example 3: weedkilling efficacy through soil treatment; H: black-grass
# Outline: (§1)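 Crop and weed responses were judged three weeks after a uniform surface spray of the water-diluted emulsion at the given g/ha rate. Seeds sat beneath about 1.5 cm of sterilized diluvial soil, and boxes stood in a greenhouse at 25 to 30° C.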
# Italian ryegrass [2] = assay: Test Example 3: weedkilling efficacy through soil treatment; I: Italian ryegrass
# Outline: as §1
# common wind-grass [3] = assay: Test Example 3: weedkilling efficacy through soil treatment; J: common wind-grass
# Outline: as §1
# wheat [4] = assay: Test Example 3: soil treatment, effect on crop; e: wheat
# Outline: as §1
# rapeseed [5] = assay: Test Example 3: soil treatment, effect on crop; g: rapeseed
# Outline: as §1
# black-grass [6] = assay: Test Example 4: weedkilling efficacy by foliar treatment; H: black-grass
# Outline: (§2)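 Seeds are spot-sown into sterilized diluvial soil and covered with about 1.5 cm of soil. After 14 days' greenhouse growth at 25 to 30° C, plants are sprayed on stems and leaves with diluted emulsion at the stated g/ha rate, then scored at 3 weeks.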
# Italian ryegrass [7] = assay: Test Example 4: weedkilling efficacy by foliar treatment; I: Italian ryegrass
# Outline: as §2
# common wind-grass [8] = assay: Test Example 4: weedkilling efficacy by foliar treatment; J: common wind-grass
# Description: (§3) Testing of Weedkilling Efficacy by Foliar Treatment
# (§4) Sterilized diluvial soil was introduced into 21 cm long, 13 cm wide, 7 cm deep plastic boxes, and seeds of crabgrass, green foxtail, barnyard grass, wild oat, black-grass, Italian ryegrass, common wind-grass, Indian mallow, redroot pigweed, fig-leafed goosefoot, chickweed, catchweed, birds-eye speedwell, corn, soybean, rice, wheat, beet and rapeseed were each spot-sown, and covered with about 1.5 cm of soil, then the plants were grown in a greenhouse at 25 to 30° C.
# (§5) After they had grown for 14 days, emulsions of compounds of the present invention prepared according to compounding example 2 were diluted with water to give the specified dosages, and applied uniformly onto the stem and leaf parts with a small sprayer. 3 weeks after the pesticide treatment the effect on each type of plant was investigated on the basis of the assessment criteria of test example 1.
# (§6) A: barnyard grass, B: bulrush, C: oval-leafed pondweed, D: crabgrass, E: green foxtail, F: barnyard grass, G: wild oat, H: black-grass, I: Italian ryegrass, J: common wind-grass, K: Indian mallow, L: redroot pigweed, M: fig-leafed goosefoot, N: chickweed, O: catchweed, p: birds-eye speedwell, a: transplanted rice, b: directly sown rice, c: corn, d: soybean, e: wheat, f: beet, g: rapeseed
# (§7) Further, pesticide dosage (g/ha) indicates the concentration regulated such that treatment was with only the stated number of grams (g), when calculated per hectare (ha).
# wheat [9] = assay: Test Example 4: foliar treatment, effect on crop; e: wheat
# Outline: as §2
# rapeseed [10] = assay: Test Example 4: foliar treatment, effect on crop; g: rapeseed
# Description: as §3, §4, §5, §6, §7
compound,measurement,setting,value
CC1=C(c2ccccc2)C(=O)N(C(C)(C)C(=O)Nc2cc(Cl)ccn2)CO1 [B-2-28],H (black-grass) weedkilling efficacy grade,black-grass [1],"5 (weed kill ratio 90% or more, (practically complete withering))"
same,I (Italian ryegrass) weedkilling efficacy grade,Italian ryegrass [2],"5 (weed kill ratio 90% or more, (practically complete withering))"
same,J (common wind-grass) weedkilling efficacy grade,common wind-grass [3],"5 (weed kill ratio 90% or more, (practically complete withering))"
same,e (wheat) effect on crop grade,wheat [4],0 (weed kill ratio 5% or less (practically no effect))
same,g (rapeseed) effect on crop grade,rapeseed [5],0 (weed kill ratio 5% or less (practically no effect))
same,H (black-grass) weedkilling efficacy grade,black-grass [6],"5 (weed kill ratio 90% or more, (practically complete withering))"
same,I (Italian ryegrass) weedkilling efficacy grade,Italian ryegrass [7],"5 (weed kill ratio 90% or more, (practically complete withering))"
same,J (common wind-grass) weedkilling efficacy grade,common wind-grass [8],"5 (weed kill ratio 90% or more, (practically complete withering))"
same,e (wheat) effect on crop grade,wheat [9],0 (weed kill ratio 5% or less (practically no effect))
same,g (rapeseed) effect on crop grade,rapeseed [10],"3 (weed kill ratio 40% or more, less than 70%)"
CC1=C(c2ccccc2)C(=O)N(C(C)(C)C(=O)Nc2cc(C)ccn2)CO1 [B-2-52],H (black-grass) weedkilling efficacy grade,black-grass [1],"4 (weed kill ratio 70% or more, less than 90%)"
same,I (Italian ryegrass) weedkilling efficacy grade,Italian ryegrass [2],"5 (weed kill ratio 90% or more, (practically complete withering))"
same,J (common wind-grass) weedkilling efficacy grade,common wind-grass [3],"5 (weed kill ratio 90% or more, (practically complete withering))"
same,e (wheat) effect on crop grade,wheat [4],0 (weed kill ratio 5% or less (practically no effect))
same,g (rapeseed) effect on crop grade,rapeseed [5],"1 (weed kill ratio 5% or more, less than 20%)"
same,H (black-grass) weedkilling efficacy grade,black-grass [6],"2 (weed kill ratio 20% or more, less than 40%)"
same,I (Italian ryegrass) weedkilling efficacy grade,Italian ryegrass [7],"3 (weed kill ratio 40% or more, less than 70%)"
same,J (common wind-grass) weedkilling efficacy grade,common wind-grass [8],"5 (weed kill ratio 90% or more, (practically complete withering))"
same,e (wheat) effect on crop grade,wheat [9],0 (weed kill ratio 5% or less (practically no effect))
same,g (rapeseed) effect on crop grade,rapeseed [10],0 (weed kill ratio 5% or less (practically no effect))
